Tested on: 857933-349-R-J2-PDC complex spheroids, viability
Assay: Anticancer human tumor 857933-349-R-J2-PDC patient-derived colon adenocarcinoma cell line growth inhibition [GQUAD]
Settings: for IC50: curve of first compound; for viability, T/C: stronger effect = lower value
Excerpt: DNA G-quadruplex Stabilizer Agents in Combinations in Complex Spheroids
A high-throughput screen of multi-cell type tumor spheroids was designed to identify active combinations of DNA G-quadruplex stabilizer agents and targeted small molecules. Complex spheroids include a stromal component modeled by human endothelial cells (HUVEC) and fibroblasts modeled by human mesenchymal stem cells (MSCs). The concentration ranges selected for each drug and investigational agent were based upon clinically achievable concentrations if the clinical Cmax of the agent was known.
Compounds. The drugs and investigational agents: pidnarulex (CX-5461; NSC782164), APTO-253 (NSC789042), BRACO-19 (NSC847499), peposertib (NSC802822), ceralasertib (NSC780249), elimusertib (NSC800525), camonsertib (NSC841442), AZD-1390 (NSC803789), olaparib (NSC753686), talazoparib (NSC767125), ART-558 (NSC835418), sotorasib (NSC818433), MRTX-1133 (NSC836407), SN-38 (NSC673596), topotecan (NSC609699), etoposide (NSC141540), doxorubicin (NSC123127), gemcitabine (NSC613327), 5-fluorouracil (NSC19893), paclitaxel (NSC125973), vemurafenib (NSC761431), panobinostat (NSC761190), R-306465 (JNJ-16241199; NSC773264), adavosertib (NSC754352), TP-3654 (NSC805149), carboplatin (NSC241240), KSQ-4279 (NSC840948), and staurosporine (NSC755774) were obtained from the National Cancer Institute (NCI) Developmental Therapeutics Program Chemical Repository (34). The FDA-approved anticancer drug set is available from the NCI Developmental Therapeutics Program. […] The stock solutions were prepared in dimethyl sulfoxide (DMSO, Sigma-Aldrich, St. Louis, MO, cat. D2650) at 800-fold the tested concentration and stored at -70 degrees C prior to their use. All drugs and investigational agents were tested over a range starting from a high concentration at or near the clinical Cmax and decreasing in half-log increments. If the clinical Cmax for an agent had not been determined, the highest concentration tested was 10 microM.
2.3 Cell Culture. All cells were maintained in an incubator at 37 degrees C and 5% CO2 with 95% humidity. The PDC lines were cultured according to standard operating procedures established by the NCI PDMR. All PDCs were thawed and cultured in Matrigel-coated flasks prepared with a working solution of 1X Ham's F-12 nutrient mix, without supplementation (Invitrogen, cat. 11765054), 100 U/mL penicillin-streptomycin (Invitrogen, cat. 15140122), and 2.5% Matrigel (Corning Inc., cat. 354248) for the first three passages. The 857933-349-R-J2-PDC line was cultured in 6C/Colon 1B media, which includes advanced DMEM/F-12 (Thermo Fisher Scientific, cat. 12634028), 10 mM HEPES (Thermo Fisher Scientific, cat. 15630080), 1X GlutaMAX supplement (Thermo Fisher Scientific, cat. 35050061), 0.1 mg/mL primocin (InvivoGen, cat. ant-pm-2), 10% defined fetal bovine serum, heat inactivated (HyClone Laboratories Inc., cat. SH30070.03HI), 50% L-WRN conditioned media (ATCC, cat. CRL-3276), 1.25 mM N-Acetyl-L-cysteine (Sigma-Aldrich, cat. A9165), 10 mM nicotinamide (Sigma-Aldrich, cat. N0636), 1X B-27 supplement (Thermo Fisher Scientific, cat. 17504044), 1X N-2 supplement (Thermo Fisher Scientific, cat. 17502048), 10 microM Y-27632 dihydrochloride (Tocris Bioscience, cat. 1254), and 50 ng/mL human EGF recombinant protein (Thermo Fisher Scientific, cat. PHG0311). The 485176-168-R4-J1-PDC line was cultured in Panc media, which includes all 6C/Colon 1B media components plus 100 ng/mL human FGF-10 (Thermo Fisher Scientific, cat. 100-26), 500 nM SB-431542 (Selleckchem, cat. S1067), and gastrin (Tocris, cat. 3006).
[…]

[1] = second compound 0.0316 µM, first compound 0.0316 µM
[2] = second compound 0.0316 µM, first compound 0.316 µM
[3] = second compound 0.1 µM, first compound 0.0316 µM
[4] = second compound 0.1 µM, first compound 0.316 µM
[5] = second compound 0.316 µM, first compound 0.0316 µM
[6] = second compound 0.316 µM, first compound 0.316 µM
[7] = second compound 1 µM, first compound 0.0316 µM
[8] = second compound 1 µM, first compound 0.316 µM
[9] = second compound 3.16 µM, first compound 0.0316 µM
[10] = second compound 3.16 µM, first compound 0.316 µM
[11] = second compound 10 µM, first compound 0.0316 µM
[12] = second compound 10 µM, first compound 0.316 µM
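Also: spheroids exposed to compounds for one week before readout.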
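For viability, T/C in this document: percent viability relative to vehicle DMSO wells taken as 100%.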

SMILES: CC[C@@]1(O)C(=O)OCc2c1cc1n(c2=O)Cc2cc3c(CN(C)C)c(O)ccc3nc2-1 + Cc1cnc(CNC(=O)c2c(=O)c3ccc(N4CCCN(C)CC4)nc3n3c2sc2ccccc23)cn1
- IC50 (second compound 0.0316 µM): 87.2 nM
- IC50 (second compound 0.1 µM): 68 nM
- IC50 (second compound 0.316 µM): < 0.999 nM
- IC50 (second compound 1 µM): < 0.999 nM
- IC50 (second compound 3.16 µM): < 0.999 nM
- IC50 (second compound 10 µM): < 0.999 nM
- viability, T/C (second compound 0.0316 µM, first compound 0.000999 µM): 95.9%
- viability, T/C (second compound 0.0316 µM, first compound 0.00316 µM): 96%
- viability, T/C (second compound 0.0316 µM, first compound 0.00999 µM): 81.6%
- viability, T/C [1]: 59.7%
- viability, T/C (second compound 0.0316 µM, first compound 0.0999 µM): 53.1%
- viability, T/C [2]: 32.2%
- viability, T/C (second compound 0.1 µM, first compound 0.000999 µM): 58.2%
- viability, T/C (second compound 0.1 µM, first compound 0.00316 µM): 65.6%
- viability, T/C (second compound 0.1 µM, first compound 0.00999 µM): 61.4%
- viability, T/C [3]: 60.3%
- viability, T/C (second compound 0.1 µM, first compound 0.0999 µM): 44.8%
- viability, T/C [4]: 19.6%
- viability, T/C (second compound 0.316 µM, first compound 0.000999 µM): 23.6%
- viability, T/C (second compound 0.316 µM, first compound 0.00316 µM): 20.7%
- viability, T/C (second compound 0.316 µM, first compound 0.00999 µM): 18.6%
- viability, T/C [5]: 22%
- viability, T/C (second compound 0.316 µM, first compound 0.0999 µM): 14%
- viability, T/C [6]: 5.04%
- viability, T/C (second compound 1 µM, first compound 0.000999 µM): 4.85%
- viability, T/C (second compound 1 µM, first compound 0.00316 µM): 5.23%
- viability, T/C (second compound 1 µM, first compound 0.00999 µM): 4.03%
- viability, T/C [7]: 3.48%
- viability, T/C (second compound 1 µM, first compound 0.0999 µM): 2.83%
- viability, T/C [8]: 2.11%
- viability, T/C (second compound 3.16 µM, first compound 0.000999 µM): 2.58%
- viability, T/C (second compound 3.16 µM, first compound 0.00316 µM): 2.92%
- viability, T/C (second compound 3.16 µM, first compound 0.00999 µM): 2.38%
- viability, T/C [9]: 2.13%
- viability, T/C (second compound 3.16 µM, first compound 0.0999 µM): 1.91%
- viability, T/C [10]: 1.66%
- viability, T/C (second compound 10 µM, first compound 0.000999 µM): 1.38%
- viability, T/C (second compound 10 µM, first compound 0.00316 µM): 1.91%
- viability, T/C (second compound 10 µM, first compound 0.00999 µM): 1.93%
- viability, T/C [11]: 2.78%
- viability, T/C (second compound 10 µM, first compound 0.0999 µM): 0.44%
- viability, T/C [12]: 0.24%

SMILES: COc1cc(C2c3cc4c(cc3C(OC3OC5COC(C)OC5C(O)C3O)C3COC(=O)C23)OCO4)cc(OC)c1O (centres undefined) + Cc1cnc(CNC(=O)c2c(=O)c3ccc(N4CCCN(C)CC4)nc3n3c2sc2ccccc23)cn1
- IC50 (second compound 0.0316 µM): 331 nM
- IC50 (second compound 0.1 µM): 104 nM
- IC50 (second compound 0.316 µM): < 31.6 nM
- IC50 (second compound 1 µM): < 31.6 nM
- IC50 (second compound 3.16 µM): < 31.6 nM
- IC50 (second compound 10 µM): < 31.6 nM
- viability, T/C [1]: 66.6%
- viability, T/C (second compound 0.0316 µM, first compound 0.1 µM): 52.2%
- viability, T/C [2]: 43.6%
- viability, T/C (second compound 0.0316 µM, first compound 1 µM): 47%
- viability, T/C (second compound 0.0316 µM, first compound 3.16 µM): 43.6%
- viability, T/C (second compound 0.0316 µM, first compound 10 µM): 22.9%
- viability, T/C [3]: 54.1%
- viability, T/C (second compound 0.1 µM, first compound 0.1 µM): 49.4%
- viability, T/C [4]: 44.5%
- viability, T/C (second compound 0.1 µM, first compound 1 µM): 38.2%
- viability, T/C (second compound 0.1 µM, first compound 3.16 µM): 36.2%
- viability, T/C (second compound 0.1 µM, first compound 10 µM): 18.4%
- viability, T/C [5]: 27.8%
- viability, T/C (second compound 0.316 µM, first compound 0.1 µM): 31.1%
- viability, T/C [6]: 24.8%
- viability, T/C (second compound 0.316 µM, first compound 1 µM): 22.8%
- viability, T/C (second compound 0.316 µM, first compound 3.16 µM): 13.7%
- viability, T/C (second compound 0.316 µM, first compound 10 µM): 6.56%
- viability, T/C [7]: 5.71%
- viability, T/C (second compound 1 µM, first compound 0.1 µM): 6.22%
- viability, T/C [8]: 5.39%
- viability, T/C (second compound 1 µM, first compound 1 µM): 5.9%
- viability, T/C (second compound 1 µM, first compound 3.16 µM): 4.83%
- viability, T/C (second compound 1 µM, first compound 10 µM): 3.18%
- viability, T/C [9]: 3.86%
- viability, T/C (second compound 3.16 µM, first compound 0.1 µM): 2.65%
- viability, T/C [10]: 2.29%
- viability, T/C (second compound 3.16 µM, first compound 1 µM): 2.54%
- viability, T/C (second compound 3.16 µM, first compound 3.16 µM): 2.32%
- viability, T/C (second compound 3.16 µM, first compound 10 µM): 1.47%
- viability, T/C [11]: 1.65%
- viability, T/C (second compound 10 µM, first compound 0.1 µM): 1.68%
- viability, T/C [12]: 1.55%
- viability, T/C (second compound 10 µM, first compound 1 µM): 2.21%
- viability, T/C (second compound 10 µM, first compound 3.16 µM): 0.74%
- viability, T/C (second compound 10 µM, first compound 10 µM): 0.21%

From PubChem BioAssay AID2060491 (Molecular Pharmacology Branch, DTP, NCI, 2025)
